This note sets out measurements from US20040110732A1, “Pharmaceutical composition for transdermal or transmucosal administration comprising at least one progestin and/or at least one oestrogen, process for preparing it and uses thereof” (BESINS INTERNATIONAL BELGIQUE, priority 2002, published 2004).

This series in a line: In vitro percutaneous absorption of 3H estradiol in Franz-type diffusion cells.

Each structure is given as a SMILES string.

Experimental: The in vitro percutaneous absorption was studied quantitatively on biopsies of dermatomed human ventral skin, placed in a 1.77 cm^2 Franz static diffusion cell, which allows the dermis to be placed in contact with a survival liquid into which the substance absorbed through the skin will be dosed. The survival liquid consists of a solution of 9 g/L sodium chloride supplemented with 15 g/L of serum albumin. The cells are placed under ambient atmosphere and thermostatically maintained at 37° C. 10 μl of preparation are applied to the entire surface of the epidermis circumscribed by the glass cylinder. During the experiment, samples of the survival liquid are taken at times 2 h, 4 h, 6 h, 8 h and 24 h. For each time, the survival liquid taken is replaced with fresh liquid.

Consider `C[C@]12CC[C@@H]3c4ccc(O)cc4CC[C@H]3[C@@H]1CC[C@@H]2O` [estradiol, 17β-estradiol], for which the “cumulative absorption at 24 hours of estradiol” value is listed as 5.26%±1.26% (control of the ethylglycolic acid test: aqueous-alcoholic estradiol 0.06% solution without hydroxy acid) and 8.90%±1.29% (ethylglycolic acid at 5%, estradiol 0.06%). For the same molecule, the “percutaneous absorption of estradiol” value is, setting by setting: (control of the glycolic acid test: aqueous-alcoholic estradiol 0.06% solution without hydroxy acid) 6.96%±2.95%; (glycolic acid at 5% in aqueous-alcoholic solution containing 40% absolute ethanol, estradiol 0.06%) 17.73%±2.96%. In addition, the “percutaneous absorption of estradiol at 24 hours” value is on record as 5.50%±1.76% (control of the lactic acid test: aqueous-alcoholic solution of estradiol 0.06%, 50% absolute alcohol, no hydroxy acid) and 13.80%±6.78% (lactic acid at 5% in aqueous-alcoholic solution containing 50% ethanol, estradiol 0.06%). Further, the “flows between 8 and 24 hours” value (lactic acid at 5% in 50% ethanol solution, compared with the control) is given as “significantly increasing”.
